In patent US20040014779A1, “Methods and compositions related to IRM compounds and toll-like recptor pathways” (3M Innovative Properties Company, priority 2001, published 2004):
“And” between values parts separate entries of the source, which are not always exact repeats. Equal entries are not always repeated. Where two headings read alike, the source gives them in different places.

Legend:
NF-κB = test: NFkB-luc reporter in HEK293 cells with empty vector control; assay type: cell-based, human; details: luciferase signal; for fold induction at 10 µM: Homo sapiens, HEK293, 16 h, read-out: Fold Increase Over DMSO Control, HEK 293 Vector; for Fold Increase Over DMSO Control, HEK 293 Vector: 10 μM, 16 hours
Description: (§1) HEK 293 cells were cultured in Minimum Essential Medium (MEM) with 2 mM L-glutamine and Earle's Balanced Salt Solution (Invitrogen Corp., Rockville, Md.) adjusted to contain 1.5 g/L sodium bicarbonate, 0.1 mM non-essential amino acids, and 1.0 mM sodium pyruvate, 90%; heat-inactivated fetal calf serum, 10%. The cells were incubated at 37° C., 8% CO2.
(§2) The cells were co-transfected with human TLR7 or Empty Vector control pIRES (BD Biosciences Clontech, Palo Alto, Calif.) along with NFkB-luc reporter (Stratagene, La Jolla, Calif.) in a 10:1 ratio with Fugene 6 transfection reagent (Roche Diagnostics Corp., Indianapolis, Ind.) following the manufacturer's instructions.
(§3) The cells were stimulated with 1 μL of IRM compounds at 1 mM in DMSO (final concentration of 10 μM) or 1 μL DMSO as a control. The plates were then incubated an additional 16 hours at 37° C., 5% CO2. The luciferase signal was read using the LucLite kit (Packard Instrument Co., Meriden, Conn.). The luminescence was measured on the Topcount NXT (Packard Instrument Co., Meriden, Conn.).

human TLR7 = molecular target: T1, human TLR7 (Homo sapiens, UniProt Q9NYK1); test: NFkB-luc reporter in HEK293 cells transfected with human TLR7; assay type: cell-based
T1 construct: expressed in transfected cells; host or cells: HEK293 (pIRES, G-418 selected)
T1 sequence (Q9NYK1 27-1049): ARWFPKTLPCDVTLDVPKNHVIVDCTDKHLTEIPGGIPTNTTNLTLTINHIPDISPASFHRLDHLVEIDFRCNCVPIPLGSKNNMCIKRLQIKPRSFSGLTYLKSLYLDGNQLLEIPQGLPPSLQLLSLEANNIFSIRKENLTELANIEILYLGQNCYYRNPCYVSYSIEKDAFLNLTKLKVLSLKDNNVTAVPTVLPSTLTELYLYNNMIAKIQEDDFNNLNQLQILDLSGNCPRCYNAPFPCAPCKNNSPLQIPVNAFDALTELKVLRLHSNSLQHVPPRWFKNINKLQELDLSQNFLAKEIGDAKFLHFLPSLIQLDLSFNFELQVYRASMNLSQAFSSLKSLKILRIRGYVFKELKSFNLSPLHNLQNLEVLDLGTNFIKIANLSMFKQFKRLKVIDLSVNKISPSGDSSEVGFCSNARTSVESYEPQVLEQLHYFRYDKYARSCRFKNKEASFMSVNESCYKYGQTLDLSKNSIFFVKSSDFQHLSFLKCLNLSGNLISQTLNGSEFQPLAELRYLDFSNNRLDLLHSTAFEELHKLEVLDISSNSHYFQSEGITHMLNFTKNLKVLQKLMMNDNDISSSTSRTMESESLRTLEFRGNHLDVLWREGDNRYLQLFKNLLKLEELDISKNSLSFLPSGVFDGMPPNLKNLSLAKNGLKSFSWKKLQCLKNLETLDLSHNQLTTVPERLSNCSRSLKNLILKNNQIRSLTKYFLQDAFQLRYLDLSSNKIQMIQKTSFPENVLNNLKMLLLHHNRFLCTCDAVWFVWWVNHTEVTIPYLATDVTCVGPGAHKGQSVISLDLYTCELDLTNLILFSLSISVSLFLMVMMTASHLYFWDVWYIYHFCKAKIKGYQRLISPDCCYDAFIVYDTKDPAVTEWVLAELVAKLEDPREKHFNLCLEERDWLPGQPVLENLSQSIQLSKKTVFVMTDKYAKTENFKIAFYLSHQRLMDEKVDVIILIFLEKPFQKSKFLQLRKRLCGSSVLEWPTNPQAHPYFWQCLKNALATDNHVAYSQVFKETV
Description: as §1, §2, §3

TLR6 = molecular target: T2, TLR6 (Homo sapiens, UniProt Q9Y2C9); test: Anti-TLR6 antibody inhibition of TNF-α production by human PBMC; assay type: cell-based; details: preincubation with anti-TLR6 antibodies; compared with LPS
T2 construct: Peripheral blood mononuclear cells (PBMCS) were isolated; endogenous in cells; host or cells: human PBMC from healthy volunteers
T2 sequence (Q9Y2C9 32-796): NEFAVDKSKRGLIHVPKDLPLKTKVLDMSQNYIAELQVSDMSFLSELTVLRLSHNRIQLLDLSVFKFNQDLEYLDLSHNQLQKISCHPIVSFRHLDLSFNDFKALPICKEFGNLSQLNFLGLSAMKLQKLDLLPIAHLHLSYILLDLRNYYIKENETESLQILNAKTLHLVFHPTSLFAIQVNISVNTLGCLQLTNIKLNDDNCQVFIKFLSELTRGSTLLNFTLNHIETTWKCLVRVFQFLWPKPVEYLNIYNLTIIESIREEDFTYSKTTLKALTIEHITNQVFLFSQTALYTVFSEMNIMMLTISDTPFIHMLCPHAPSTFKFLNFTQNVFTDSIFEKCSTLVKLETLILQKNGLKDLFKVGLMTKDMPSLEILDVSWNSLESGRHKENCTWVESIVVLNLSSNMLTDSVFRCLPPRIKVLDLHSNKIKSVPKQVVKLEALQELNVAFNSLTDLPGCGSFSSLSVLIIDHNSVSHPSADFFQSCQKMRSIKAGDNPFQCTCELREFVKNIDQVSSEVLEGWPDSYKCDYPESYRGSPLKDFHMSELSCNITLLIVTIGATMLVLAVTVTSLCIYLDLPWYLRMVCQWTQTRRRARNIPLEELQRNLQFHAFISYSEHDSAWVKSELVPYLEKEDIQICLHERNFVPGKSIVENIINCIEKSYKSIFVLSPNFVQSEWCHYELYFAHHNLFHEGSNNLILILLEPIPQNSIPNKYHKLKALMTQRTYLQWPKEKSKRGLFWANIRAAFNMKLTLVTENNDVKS
T2 sequence (O60603 21-784 partner): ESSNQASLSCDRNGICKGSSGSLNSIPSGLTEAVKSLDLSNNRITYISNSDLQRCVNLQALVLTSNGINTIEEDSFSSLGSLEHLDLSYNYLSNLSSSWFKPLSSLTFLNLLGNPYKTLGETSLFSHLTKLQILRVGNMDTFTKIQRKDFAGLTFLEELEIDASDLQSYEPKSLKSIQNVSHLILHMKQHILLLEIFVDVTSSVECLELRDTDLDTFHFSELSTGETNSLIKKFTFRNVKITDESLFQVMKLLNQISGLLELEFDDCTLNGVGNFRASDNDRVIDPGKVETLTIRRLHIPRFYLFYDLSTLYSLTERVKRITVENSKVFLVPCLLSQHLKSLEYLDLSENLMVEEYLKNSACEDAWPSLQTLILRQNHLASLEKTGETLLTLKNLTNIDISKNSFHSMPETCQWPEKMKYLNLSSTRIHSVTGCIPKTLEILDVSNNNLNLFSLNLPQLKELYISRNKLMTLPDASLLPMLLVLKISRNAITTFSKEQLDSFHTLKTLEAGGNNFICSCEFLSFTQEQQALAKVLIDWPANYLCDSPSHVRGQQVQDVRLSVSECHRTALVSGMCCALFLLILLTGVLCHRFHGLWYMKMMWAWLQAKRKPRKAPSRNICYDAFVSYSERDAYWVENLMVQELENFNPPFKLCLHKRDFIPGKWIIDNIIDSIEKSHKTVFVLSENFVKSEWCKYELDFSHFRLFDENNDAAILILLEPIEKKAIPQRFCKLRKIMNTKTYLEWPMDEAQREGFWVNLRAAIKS
Description: Peripheral blood mononuclear cells (PBMCS) were isolated with the Histopaque HybriMax—1077 density gradient (Sigma Chemical Co., St. Louis, Mo.) from healthy human volunteers after obtaining informed consent.
PBMC were resuspended in cRPMI at a concentration of 10^6 cells/ml. 100 μl of cells (10^5 cells) were then added to individual wells of a 96 well U-bottom plate (BD Biosciences Discovery Labware, Bedford, Mass.). Solutions containing cRPMI with 40 μg/ml of the affinity purified anti-TLR6 polyclonal antibody were prepared. 50 μl of the antibody solution was added to cells and incubated for 30 minutes. […] Cells were incubated for 18 hours at 37° C. in an atmosphere of 5% CO2/95% air. Supernatants were collected and frozen at −20° C. for cytokine analysis. The data are presented as % inhibition relative to control.
Data shown are representative of six independent experiments.

[1] = luciferase signal, 10 μM, 16 hours, TLR7 cells

Molecule: CCCCc1nc2c(N)nc(C)c(C)c2n1CCCCNS(C)(=O)=O [IRM 17, N-[4-(4-amino-2-butyl-6,7-dimethyl-1H-imidazo[4,5-c]pyridin-1-yl)butyl]methanesulfonamide]
- fold induction at 10 µM (NF-κB): 0.99
- Fold Increase Over DMSO Control, HEK293 TLR7 (human TLR7; [1]): 2.79 fold and 2.71 fold

Molecule: Peptidoglycan
- Effect of anti-TLR6 antibodies on stimulus-induced TNF-α production (in words) (TLR6): inhibited by the antibodies to a greater extent

Molecule: CCCCc1nc2c(N)nc3c(c2n1CC(C)C)NCCC3 [IRM 8, 2-butyl-6,7,8,9-tetrahydro-1-(2-methylpropyl)-1H-imidazo[4,5-c][1,5]naphthyridin-4-amine]
- fold induction at 10 µM (NF-κB): 0.91
- Fold Increase Over DMSO Control, HEK293 TLR7 (human TLR7; [1]): 4.59 fold

Molecule: CCCCc1nc2c(N)nc3cccnc3c2s1 [IRM 11, 2-butyl[1,3]thiazolol[4,5-c][1,5]naphthyridin-4-amine]
- Fold Increase Over DMSO Control, HEK 293 Vector (NF-κB): 1.35 fold
- Fold Increase Over DMSO Control, HEK293 TLR7 (human TLR7; [1]): 1.06 fold

Molecule: CCCCc1nc2c(N)nc3ccccc3c2n1CCCCNS(C)(=O)=O [IRM 12, N-[4-(4-amino-2-butyl-1H-imidazo[4,5-c]quinolin-1-yl)butyl]methanesulfonamide]
- fold induction at 10 µM (NF-κB): 1.33
- Fold Increase Over DMSO Control, HEK293 TLR7 (human TLR7; [1]): 15.33 fold

Molecule: COCCc1nc2c(N)nc3ccccc3c2n1CCCCNC(=O)N1CCOCC1 [IRM 16, N-{4-[4-amino-2-(2-methoxyethyl)-1H-imidazo[4,5-c]quinolin-1-yl]butyl}morpholine-4-carboxamide]
- fold induction at 10 µM (NF-κB): 0.98
- Fold Increase Over DMSO Control, HEK293 TLR7 (human TLR7; [1]): 1.51 fold

Molecule: C[C@H](c1ccccc1)n1cnc2c(N)nc3ccccc3c21 [IRM 10, 1-[R(+)-1-phenylethyl]-1H-imidazo[4,5-c]quinolin-4-amine]
- Fold Increase Over DMSO Control, HEK 293 Vector (NF-κB): 1.10 fold
- Fold Increase Over DMSO Control, HEK293 TLR7 (human TLR7; [1]): 2.55 fold

Molecule: CCCCc1nc2c(N)nc3ncccc3c2n1CC(C)C [IRM 5, 2-butyl-1-(2-methylpropyl)-1H-imidazo[4,5-c][1,8]naphthyridin-4-amine]
- fold induction at 10 µM (NF-κB): 1.21
- Fold Increase Over DMSO Control, HEK293 TLR7 (human TLR7; [1]): 1.13 fold

Molecule: CCCCc1nc2c(N)nc3cnccc3c2n1CC(C)C [IRM 6, 2-butyl-1-(2-methylpropyl)-1H-imidazo[4,5-c][1,7]naphthyridin-4-amine]
- fold induction at 10 µM (NF-κB): 0.95
- Fold Increase Over DMSO Control, HEK293 TLR7 (human TLR7; [1]): 1.25 fold

Molecule: Nc1nc2ccccc2c2c1ncn2CCOCCCc1cccnc1 [IRM 4, 1-{2-[3-(3-pyridyl)propoxy]ethyl}-1H-imidazo[4,5-c]quinolin-4-amine]
- fold induction at 10 µM (NF-κB): 1
- Fold Increase Over DMSO Control, HEK293 TLR7 (human TLR7; [1]): 4.06 fold

Molecule: Nc1nc2ccccc2c2c1nc1n2CCCC1 [IRM 13, 8,9,10,11-tetrahydropyrido[1′,2′:1,2]imidazol[4,5-c]quinolin-6-amine]
- Fold Increase Over DMSO Control, HEK 293 Vector (NF-κB): 1.20 fold
- Fold Increase Over DMSO Control, HEK293 TLR7 (human TLR7; [1]): 2.39 fold

Molecule: CCCCc1nc2c(N)nc3ccccc3c2n1CCNS(C)(=O)=O [IRM 15, N-[2-(4-amino-2-butyl-1H-imidazo[4,5-c]quinolin-1-yl)ethyl]methanesulfonamide]
- fold induction at 10 µM (NF-κB): 1.04
- Fold Increase Over DMSO Control, HEK293 TLR7 (human TLR7; [1]): 1.88 fold

Molecule: Cc1nc2c(N)nc3ccccc3c2n1CC(C)(C)O.Cl [IRM 1, 4-amino-α,α,2-trimethyl-1H-imidazo[4,5-c]quinoline-1-ethanol hydrochloride]
- fold induction at 10 µM (NF-κB): 0.86
- Fold Increase Over DMSO Control, HEK293 TLR7 (human TLR7; [1]): 3.75 fold

Molecule: COCCc1nc2c(N)nc3ccccc3c2n1CCCCNC(=O)c1ccc(-n2cccc2)nc1 [IRM 14, N^3-{4-[4-amino-2-(2-methoxyethyl)-1H-imidazo[4,5-c]quinolin-1-yl]butyl}-6-(1H-1-pyrrolyl)nicotinamide]
- fold induction at 10 µM (NF-κB): 1.31
- Fold Increase Over DMSO Control, HEK293 TLR7 (human TLR7; [1]): 1.37 fold

Molecule: CCOCc1nc2c(N)nc3c(c2n1CC(C)(C)O)CCCC3 [IRM 9, 4-amino-2-ethoxymethyl-α,α-dimethyl-6,7,8,9-tetrahydro-1H-imidazol[4,5-c]quinoline-1-ethanol]
- Fold Increase Over DMSO Control, HEK 293 Vector (NF-κB): 0.81 fold
- Fold Increase Over DMSO Control, HEK293 TLR7 (human TLR7): 4.67 fold

Molecule: CCCCc1nc2c(N)nc3cccnc3c2n1CC(C)C [IRM 7, 2-butyl-1-(2-methylpropyl)-1H-imidazo[4,5-c][1,5]naphthyridin-4-amine]
- fold induction at 10 µM (NF-κB): 1.3
- Fold Increase Over DMSO Control, HEK293 TLR7 (human TLR7; [1]): 3.06 fold
